Results: US20230338543A1, “GAMMA-HYDRO[…] AND PROCESSES FOR MAKING AND USING THEM” (Zevra Therapeutics, Inc., priority 2022, published 2023)

Assay: Pharmacokinetics of GHB in plasma after oral gavage of GHB delivering compounds in rats; relative oral bioavailability vs sodium oxybate
Conditions: vehicle water; for % AUC0-4 hr, relative oral bioavailability vs sodium oxybate / % Cmax, relative oral bioavailability vs sodium oxybate: mean conjugate PK parameter/mean comparator PK parameter
[1] = molar equivalent of 100 mg/kg NaGHB
[2] = dose equivalent to 80 mg/kg NaGHB (extrapolated to 100 mg/kg)
[3] = dose equivalent to 80 mg/kg NaGHB, data extrapolated to 100 mg/kg

## O=C1CCCO1 [GBL]
[1]
  AUC0-4 hr of GHB in plasma: 9.04 ng·h/mL
  Cmax of GHB in plasma: 15.4 ng/mL
  Tmax of GHB in plasma: 15 min
  % AUC0-4 hr, relative oral bioavailability vs sodium oxybate: 27%
  % Cmax, relative oral bioavailability vs sodium oxybate: 70%

## CCOC(=O)OCCCC(=O)O [O-(ethoxycarbonyl)-GHB]
[2]
  % AUC0-4 hr, relative oral bioavailability vs sodium oxybate: 54%
  % Cmax, relative oral bioavailability vs sodium oxybate: 51%
[3]
  AUC0-4 hr of GHB in plasma: 19.4 ng·h/mL
  Cmax of GHB in plasma: 15.0 ng/mL
Dose equivalent to 80 mg/kg NaGHB
  Tmax of GHB in plasma: 21 min
